Drawing on PMC7046841, “Triterpenoids from Ainsliaea latifolia and Their Cyclooxyenase-2 (COX-2) Inhibitory Activities” (Natural Products and Bioprospecting, 2019), this text covers IC50 for nine molecules.

Broadly, the IC50 is the concentration needed to halve the response being measured.

The target in the experiment is T1, human recombinant COX-2 (Homo sapiens, UniProt P35354).
T1 construct: purchased Cayman
T1 sequence (P35354 18-604): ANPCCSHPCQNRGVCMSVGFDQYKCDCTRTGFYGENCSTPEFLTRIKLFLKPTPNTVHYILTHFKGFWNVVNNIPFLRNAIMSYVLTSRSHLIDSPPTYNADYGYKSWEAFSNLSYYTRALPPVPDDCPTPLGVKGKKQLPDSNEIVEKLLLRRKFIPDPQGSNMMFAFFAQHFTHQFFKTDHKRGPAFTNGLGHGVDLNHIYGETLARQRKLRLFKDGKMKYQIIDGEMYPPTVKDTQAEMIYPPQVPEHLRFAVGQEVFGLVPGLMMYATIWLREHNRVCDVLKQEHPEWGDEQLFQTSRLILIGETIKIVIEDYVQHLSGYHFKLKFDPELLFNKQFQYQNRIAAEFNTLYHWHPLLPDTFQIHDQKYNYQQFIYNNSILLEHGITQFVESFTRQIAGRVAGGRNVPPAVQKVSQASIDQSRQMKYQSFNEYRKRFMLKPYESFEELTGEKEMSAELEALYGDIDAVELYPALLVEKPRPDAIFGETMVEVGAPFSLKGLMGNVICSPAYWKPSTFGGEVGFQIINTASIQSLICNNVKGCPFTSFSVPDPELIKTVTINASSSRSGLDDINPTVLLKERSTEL
The experiment in a line: Colorimetric COX Inhibitor Screening Assay (Cayman), COX-2 inhibitory effect. In kind it is biochemical. As for the experimental part: Cayman’s Colorimetric COX Inhibitor Screening Assay provides a convenient method for human recombinant COX-2 to screen isozyme-specific inhibitors. The assay measures the peroxidase component of COXs. The peroxidase activity is assayed colorimetrically by monitoring the appearance of oxidized N′,N,N,N′-tetramethyl-p-phenylenediamine (TMPD) at 590 nm. The COX-2 assay consisted of a 200 µL reaction mixture containing 150 µL assay buffer, 10 µL Heme, 10 µL COX-2, 20 µL Colorimetric Substrate, and 10 µL test solution (1, 5, 10, 20, 80, 100 µmol·L^−1). The reactions were initiated by quickly adding 10 µL Arachidonic Acid, then incubating for 2 min at room temperature.
Turning to `CC(C=CC(O)C(C)(C)O)C1CCC2(C)C3CC=C4C(CCC(O)C4(C)C)C3(C)CCC12C` (stereo not drawn) [Compound 1, cucurbita-5, 22-diene-3β, 24S, 25-triol], the concentration for half-maximal inhibition (IC50) was above 100 µM.

For the molecule `C[C@H](CC[C@H](O)C(C)(C)O)[C@H]1CC[C@@]2(C)[C@@H]3CC=C4[C@@H](CC[C@H](O)C4(C)C)[C@]3(C)CC[C@]12C` [Compound 2, cucurbita-5-ene-3β,24S,25-triol], the half-inhibitory concentration (IC50) worked out at 18.9 ± 1.65 µM.

In the case of `C[C@H](C/C=C/C(C)(C)O)[C@H]1CC[C@@]2(C)[C@@H]3C[C@H]4O[C@@]45[C@@H](CC[C@H](O)C5(C)C)[C@]3(C)CC[C@]12C` [Compound 3, cucurbita-5β,6β-epoxy-23-ene-3β, 25-diol], the IC50 was above 100 µM.

For `C[C@H](CCCO)[C@H]1CC[C@@]2(C)[C@@H]3CC=C4[C@@H](CC[C@H](O)C4(C)C)[C@]3(C)CC[C@]12C` [Compound 4, 25,26,27-trinorcucurbita-5-ene-3β,24-diol], the concentration for half-maximal inhibition (IC50) came to 3.98 ± 0.32 µM.

As to `C[C@H](CCC(=O)O)[C@H]1CC[C@@]2(C)[C@@H]3CC=C4[C@@H](CC[C@H](O)C4(C)C)[C@]3(C)CC[C@]12C` [Compound 5, 25,26,27-trinorcucurbita-5-ene-3β-ol-24-acid], the IC50 is 19.5 ± 1.87 µM.

For the molecule `C[C@H](CCO)[C@H]1CC[C@@]2(C)[C@@H]3CC=C4[C@@H](CC[C@H](O)C4(C)C)[C@]3(C)CC[C@]12C` [Compound 6, 24,25,26,27-tetranorcucurbita-5-ene-3β,23-diol], the IC50 is 31 ± 2.64 µM.

Turning to `CC(CC=CC(C)(C)O)C1CCC2(C)C3CCC4(C)C(C)C(=O)CCC4C3(C)CCC12C` (stereo not drawn) [Compound 7, 18R-D:A-friedoeuph-20-ene-22-ol-3-one], the half-inhibitory concentration (IC50) is above 100 µM.

As to `C=C(C)[C@@H](O)CC[C@@H](C)[C@@H]1CC[C@]2(C)[C@H]3CC[C@@]4(C)[C@@H](CCC(=O)[C@@H]4C)[C@]3(C)CC[C@@]12C` [Compound 8], the IC50 was above 100 µM.

For `C[C@H](C/C=C/C(C)(C)O)[C@H]1CC[C@@]2(C)[C@@H]3CC=C4[C@@H](CC[C@H](O)C4(C)C)[C@]3(C)CC[C@]12C` [Compound 9, cucurbita-5,23-diene-3β,25-diol], the IC50 is above 100 µM.
